Measurements taken from article PMC9104286, “Characterization of a Cutibacterium acnes Camp Factor 1-Related Peptide as a New TLR-2 Modulator in In Vitro and Ex Vivo Models of Inflammation” (International Journal of Molecular Sciences, 2022).

Columns and labels:
human skin explants = assay: Ex vivo human skin explants, induction of proinflammatory molecules by stimuli; format: cell-based; details: skin explants stimulated 18 h, LPS or PGN 5 µg/ml, Luminex, culture supernatant, mean ± SEM, n = 6
C. acnes 6919 = assay: Bacterial growth monitored at 620 nm; format: cell-based, Cutibacterium acnes; details: C. acnes 6919, 5 days; B2 at 1 to 128 μM; antibiotics as positive control; growth at 620 nm
From the text: (§1) As a positive control for growth inhibition, we cultured the bacteria in the presence of the antibiotic ampicillin, doxycycline and clindamycin.
(§2) Bacterial growth was monitored at 620 nm.
(§3) We used 24 strains of C. acnes in the study: strain 6919 (Type IA1) from the American Type Culture Collection (Manassas, VA) and strains isolated from various infections (13 bone and joint infections, 1 case of pleuritis, 1 case of appendicitis, 1 case of pericarditis, 1 case of pneumonia, 3 cutaneous infections, 1 case of bacteremia and 2 ascitic fluid infections). C. acnes strains RON (IA1), TRI (IA2), LIE (IA2), CHR (IA2), GUE (IB) and PIE (IB) were isolated from patients with joint infections. All these strains were kindly provided by Dr. Philippe Morand from the Bacteriology Department at Cochin Hospital, Paris, France. C. acnes strains were grown under anaerobic conditions in liquid or solidified reinforced clostridial medium (RCM; Difco Laboratories, Detroit, MI, USA), in a GasPak™ EZ Anaerobic Container System (Becton Dickinson & Co, Franklin Lakes, NJ, USA) at 37 °C. For routine culture, 100 mL of RCM was used and the bacteria were harvested after 5 days at 37 °C, by centrifugation at 7,000 x g for 10 min and 4 °C. The pellets were pooled and washed in about 30 mL cold sterile phosphate-buffered saline (PBS) (1.5 mM KH2PO4, 2.7 mM Na2HPO4.7H2O, 0.15 M NaCl (pH 7.4)), and were then centrifuged again, as described above. The final bacterial pellet was suspended in sterile PBS (1:10 based on the volume of the culture). Staphylococcus aureus (ATCC #25923) and Staphylococcus epidermidis (ATCC #12228) were grown in tryptic soy broth (TSB) and brain heart infusion (BHI) (Sigma-Aldrich, Saint-Louis, MO, USA) under aerobic conditions at 37 °C.

S. aureus = assay: Bacterial growth monitored at 620 nm; format: cell-based, Staphylococcus aureus; details: 24 h; B2 at 1 to 128 μM; antibiotics as positive control; growth at 620 nm
From the text: as §1, §2, §3

S. epidermidis = assay: Bacterial growth monitored at 620 nm; format: cell-based, Staphylococcus epidermidis; details: 24 h; B2 at 1 to 128 μM; antibiotics as positive control; growth at 620 nm
From the text: as §1, §2, §3

Compound | GM-CSF levels (human skin explants) [pg/mL] | IL-1β levels (human skin explants) [pg/mL] | IL-10 production (human skin explants) [pg/mL] | TNF-α production (human skin explants) [pg/mL] | effect on growth of C. acnes (in words) (C. acnes 6919) | effect on growth of S. aureus (in words) (S. aureus) | effect on growth of S. epidermidis (in words) (S. epidermidis)
peptidoglycan [PGN] | 4733 ± 218 | 23 ± 0.8 | 35 ± 1.4 | 126 ± 9.3 |  |  | 
CC1(C)S[C@@H]2[C@H](NC(=O)[C@H](N)c3ccccc3)C(=O)N2[C@H]1C(=O)O [ampicillin] |  |  |  |  | susceptible | susceptible | resistant
C[C@H]1c2cccc(O)c2C(=O)C2=C(O)[C@]3(O)C(=O)C(C(N)=O)=C(O)[C@@H](N(C)C)[C@@H]3[C@@H](O)[C@@H]21 [doxycycline] |  |  |  |  | susceptible | susceptible | susceptible
CCC[C@@H]1C[C@@H](C(=O)N[C@@H]([C@H]2O[C@H](SC)[C@H](O)[C@@H](O)[C@H]2O)[C@H](C)Cl)N(C)C1 [clindamycin] |  |  |  |  | susceptible | susceptible | susceptible
lipopolysaccharide [LPS] | 765 ± 30 | 392 ± 5.6 | 10 ± 0.3 | 22 ± 1.7 |  |  | 
